Measurements reported in ChEMBL document CHEMBL4616583 (J Med Chem, 2019).
pIC50: −log10 of the molar value. In brackets after ≈: the same amount, converted by molar mass. Activity calls are given as the source filed them. The calls are words filed in the database; no cut-off is given here.

Columns and labels:
in vivo [1] = conditions: rat, urine, po, 10 mg/kg
in vitro [2] = conditions: human, microsomes
in vivo [3] = conditions: mouse, plasma
in vivo [4] = conditions: mouse, plasma; remark: listed apart in the source
in vitro [5] = conditions: human, microsomes; remark: listed apart in the source
in vitro [6] = conditions: human, plasma
in vivo [7] = conditions: dog, iv, 1 mg/kg
in vitro [8] = conditions: human, Caco-2
in vivo [9] = conditions: rat, iv, 5 mg/kg
Homo sapiens [10] = species: Homo sapiens; conditions: 10 uM
in vivo [11] = conditions: dog, iv, 1 mg/kg; remark: listed apart in the source
in vitro [12] = conditions: mouse, plasma
in vivo [13] = conditions: rhesus monkey, iv, 1 mg/kg
in vivo [14] = conditions: rhesus monkey, po, 2 mg/kg
in vivo [15] = conditions: mouse, iv, 2 mg/kg
in vivo [16] = conditions: mouse, iv, 2 mg/kg; remark: listed apart in the source
in vivo [17] = conditions: mouse, po, 4 mg/kg
in vivo [18] = conditions: rhesus monkey, po, 2 mg/kg; remark: listed apart in the source
in vivo [19] = conditions: rhesus monkey, po, 2 mg/kg; remark: listed apart in the source
Homo sapiens [20] = species: Homo sapiens; conditions: 10 uM; remark: listed apart in the source
in vivo [21] = conditions: rat, iv, 5 mg/kg; remark: listed apart in the source
Mus musculus [22] = species: Mus musculus; experiment: animal or person; conditions: NZB/WF1, po, 504 h, read-out: INH
Cynomolgus monkey [23] = experiment: animal or person; conditions: Macaca fascicularis, po, 72 h, read-out: INH
in vitro [24] = conditions: PAMPA, pH 7.4
in vivo [25] = conditions: dog, po, 2 mg/kg
in vitro [26] = conditions: dog, plasma
[27] = target: Tyrosine-protein kinase BTK (Mus musculus) (UniProt P35991); conditions: 0.5 mg/kg
Chain of Tyrosine-protein kinase BTK (Mus musculus) (P35991 whole entry): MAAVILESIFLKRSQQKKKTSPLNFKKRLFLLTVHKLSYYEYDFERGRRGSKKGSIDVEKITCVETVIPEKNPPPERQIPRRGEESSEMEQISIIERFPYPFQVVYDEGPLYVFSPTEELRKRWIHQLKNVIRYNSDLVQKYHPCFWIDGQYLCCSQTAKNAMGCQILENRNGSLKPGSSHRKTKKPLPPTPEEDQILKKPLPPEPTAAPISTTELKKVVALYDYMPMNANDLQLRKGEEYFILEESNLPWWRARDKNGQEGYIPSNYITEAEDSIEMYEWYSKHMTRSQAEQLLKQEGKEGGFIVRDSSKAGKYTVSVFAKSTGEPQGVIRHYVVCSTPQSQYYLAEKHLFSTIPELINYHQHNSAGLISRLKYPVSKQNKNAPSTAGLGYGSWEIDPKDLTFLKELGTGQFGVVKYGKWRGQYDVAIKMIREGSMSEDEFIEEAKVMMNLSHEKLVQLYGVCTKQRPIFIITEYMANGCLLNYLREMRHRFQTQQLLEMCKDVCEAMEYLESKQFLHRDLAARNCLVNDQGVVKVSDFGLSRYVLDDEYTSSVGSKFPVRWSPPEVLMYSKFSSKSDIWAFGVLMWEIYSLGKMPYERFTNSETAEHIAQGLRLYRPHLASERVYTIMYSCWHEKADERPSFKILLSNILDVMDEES

in vivo [28] = conditions: rat, po, 5 mg/kg
in vivo [29] = conditions: rat, iv, 5 mg/kg; remark: listed apart in the source
in vitro [30] = conditions: rat, plasma
in vivo [31] = conditions: rhesus monkey, iv, 1 mg/kg; remark: listed apart in the source
physchem [32] = conditions: buffer, pH 1
in vivo [33] = conditions: rhesus monkey, po, 2 mg/kg; remark: listed apart in the source
Mus musculus [34] = species: Mus musculus; experiment: animal or person; conditions: DBA1/J, po, 912 h, read-out: INH
in vivo [35] = conditions: dog, po, 2 mg/kg; remark: listed apart in the source
in vivo [36] = conditions: mouse, iv, 2 mg/kg; remark: listed apart in the source
[37] = target: Tyrosine-protein kinase BTK (Mus musculus) (UniProt P35991); conditions: DBA1/J, 0.1 mg/kg
[38] = target: Tyrosine-protein kinase BTK (Mus musculus) (UniProt P35991); conditions: NZB/WF1, 0.5 mg/kg
physchem [39] = conditions: fasted state simulated intestinal fluid (FaSSIF)
in vitro [40] = conditions: rhesus monkey, plasma
Mus musculus [41] = species: Mus musculus; experiment: animal or person; conditions: NZB/WF1, po, 504 h, read-out: INH; remark: listed apart in the source
in vivo [42] = conditions: dog, iv, 1 mg/kg; remark: listed apart in the source
in vivo [43] = conditions: rhesus monkey, iv, 1 mg/kg; remark: listed apart in the source
in vivo [44] = conditions: rat, po, 5 mg/kg; remark: listed apart in the source
in vivo [45] = conditions: mouse, iv, 2 mg/kg; remark: listed apart in the source
[46] = target: Tyrosine-protein kinase BTK (Mus musculus) (UniProt P35991); conditions: DBA1/J, 0.5 mg/kg
in vitro [47] = conditions: human, Caco-2; remark: listed apart in the source
in vivo [48] = conditions: rat, iv, 5 mg/kg; remark: listed apart in the source
in vivo [49] = conditions: rat, po, 5 mg/kg; remark: listed apart in the source
Cynomolgus monkey [50] = experiment: animal or person; conditions: Macaca fascicularis, po, 4 h, read-out: INH
[51] = target: Tyrosine-protein kinase BTK (Mus musculus) (UniProt P35991); conditions: DBA1/J, 2.5 mg/kg
in vivo [52] = conditions: dog, po, 2 mg/kg; remark: listed apart in the source
in vivo [53] = conditions: dog, iv, 1 mg/kg; remark: listed apart in the source
physchem [54] = conditions: buffer, pH 7
[55] = target: Tyrosine-protein kinase BTK (Mus musculus) (UniProt P35991); conditions: 0.5 to 2.5 mg/kg
[56] = target: Tyrosine-protein kinase BTK (Mus musculus) (UniProt P35991); conditions: NZB/WF1, 0.2 mg/kg
in vivo [57] = conditions: mouse, po, 4 mg/kg; remark: listed apart in the source
in vivo [58] = conditions: mouse, po, 4 mg/kg; remark: listed apart in the source
Mus musculus [59] = species: Mus musculus; experiment: animal or person; conditions: NZB/WF1, po, 504 h, read-out: INH; remark: listed apart in the source
physchem [60] = conditions: fed state simulated intestinal fluid (FeSSIF)
in vivo [61] = conditions: rat, po, 5 mg/kg; remark: listed apart in the source
in vitro [62] = conditions: PAMPA, pH 5.5
[63] = target: Tyrosine-protein kinase BTK (Mus musculus) (UniProt P35991); conditions: 0.5 mg/kg; remark: listed apart in the source
in vivo [64] = conditions: rhesus monkey, iv, 1 mg/kg; remark: listed apart in the source
in vivo [65] = conditions: dog, po, 2 mg/kg; remark: listed apart in the source
Mus musculus [66] = species: Mus musculus; conditions: DBA1/J, 0.1 to 2.5 mg/kg
in vivo [67] = conditions: mouse, po, 4 mg/kg; remark: listed apart in the source
B cell = experiment: cells; conditions: Homo sapiens

Work on `CC#C[14C](=O)N[C@H]1CCCN(c2c(F)cc(C(N)=O)c3[nH]c(C)c(C)c23)C1` yielded a dose excreted at 72 h (in vivo [1]) of 0.7%.

`C=CS(=O)(=O)N[C@@H]1CCCN(c2ccc(C(N)=O)c3[nH]c(C)c(C)c23)C1` gave a remaining at 10 min (in vitro [2]) of 84%.

In the case of `CC#CC(=O)N[C@H]1CCCN(c2ccc(C(N)=O)c3[nH]c(C)c(C)c23)C1`, the Cmax (in vivo [3]) was 0.49 µM and the AUC (in vivo [4]) was 1.1 µM·h.

`C=CS(=O)(=O)N[C@H]1CCCN(c2ccc(C(N)=O)c3[nH]c(C)c(C)c23)C1` gave a half-life (in vitro [5]) of 0.833 h, a Cmax (in vivo [3]) of 0.127 µM and a remaining at 10 min (in vitro [2]) of 90%.

For `CC#CC(=O)N[C@H]1CCCN(c2c(F)cc(C(N)=O)c3[nH]c(C)c(C)c23)C1` [BRANEBRUTINIB], the fraction unbound (in vitro [6]) was 0.012, the clearance (in vivo [7]) was 0.94 mL/min/kg and the Papp B→A (in vitro [8]) was 12.7 to 25 ×10⁻⁶ cm/s. The half-life (in vivo [9]) was 4.3 h, the Cmax (in vivo [3]) was 42 µM and the inhibition (Homo sapiens [10]) was 3.1%. It also gave a Vd (in vivo [11]) of 0.24 L/kg, a fraction unbound (in vitro [12]) of 0.004 and a Vd (in vivo [13]) of 0.45 L/kg. The Cmax (in vivo [14]) was 2.3 µM, the MRT (in vivo [15]) was 0.57 h and the Vd (in vivo [16]) was 0.48 L/kg. The Cmax (in vivo [17]) was 7.7 µM, the bioavailability (in vivo [18]) was 46% and the AUC (in vivo [19]) was 4.9 µM·h. It also gave an inhibition (Homo sapiens [20]) of 23%, an MRT (in vivo [21]) of 0.8 h and an inhibition in vivo at 0.2 mg/kg (Mus musculus [22]) of 40%. It also gave an inhibition in vivo at 0.5 mg/kg (Cynomolgus monkey [23]) of 74%, a Papp (in vitro [24]) of 97.8 ×10⁻⁶ cm/s and a bioavailability (in vivo [25]) of 81%. For the same molecule, the fraction unbound (in vitro [26]) was 0.002, the inhibition [27] was 90% and the Cmax (in vivo [28]) was 9.6 µM. It also gave a Vd (in vivo [29]) of 0.4 L/kg, a fraction unbound (in vitro [30]) of 0.002 and a clearance (in vivo [31]) of 9.4 mL/min/kg. The solubility (physchem [32]) was 2 to 3 µg/mL (≈ 5.4 to 8.1 µM), the Tmax (in vivo [33]) was 1 h and the inhibition in vivo at 2.5 mg/kg (Mus musculus [34]) was 92%. For the same molecule, the Cmax (in vivo [35]) was 19 µM, the half-life (in vivo [36]) was 0.46 h and the inhibition [37] was 64%. For the same molecule, the inhibition [38] was 99%, the solubility (physchem [39]) was 9 µg/mL (≈ 24.3 µM) and the fraction unbound (in vitro [40]) was 0.004. It also gave an inhibition in vivo at […] (Mus musculus [41]) of 61%, a half-life (in vivo [42]) of 3 h and a half-life (in vivo [43]) of 3.2 h. It also gave an AUC (in vivo [44]) of 18 µM·h, a clearance (in vivo [45]) of 14 mL/min/kg and an inhibition [46] of 97%. The Papp A→B (in vitro [47]) was 17.7 to 42.2 ×10⁻⁶ cm/s, the clearance (in vivo [48]) was 8.7 mL/min/kg and the Tmax (in vivo [49]) was 0.58 h. The inhibition in vivo at 0.5 mg/kg (Cynomolgus monkey [50]) was 100%, the inhibition [51] was 99% and the AUC (in vivo [52]) was 78 µM·h. The MRT (in vivo [53]) was 4.1 h, the logD (physchem [54]) was 3.18 and the inhibition [55] was 25%. For the same molecule, the inhibition [56] was 92%, the AUC (in vivo [4]) was 52 µM·h and the Tmax (in vivo [57]) was 1 h. It also gave a bioavailability (in vivo [58]) of 106%, an inhibition in vivo at 0.5 mg/kg (Mus musculus [59]) of 51% and a solubility (physchem [60]) of 145 µg/mL (≈ 391 µM). For the same molecule, the bioavailability (in vivo [61]) was 74%, the Papp (in vitro [62]) was 85.9 ×10⁻⁶ cm/s and the inhibition [63] was 86%. The MRT (in vivo [64]) was 1 h, the Tmax (in vivo [65]) was 0.67 h and the inhibition (Mus musculus [66]) was “Active”. The AUC (in vivo [67]) was 14 µM·h and the pIC50 (B cell) was 10.40.
